Measured values: patent EP4111863A1, “PHOSPHORUS USE EFFICIENCY ENHANCERS AS PLANT GROWTH PROMOTORS” (EuroChem Antwerpen, priority 2021, dated 2023)

Tests used:
Arabidopsis = Arabidopsis vertical plate growth assay (primary root length, shoot biomass); format: in vivo, Arabidopsis thaliana; settings: Table 2; low phosphate, versus control without compound
Protocol: All Arabidopsis plant experiments were performed using the Arabidopsis thaliana Columbia-0 background. The Arabidopsis pSPX1::GUS line is described in the […] 2008, 54: 965-975. For rice, the cultivar Nipponbare was used. For maize, the cultivars DKC 2931 and B104 were used for regular pot experiments and sand-based pot experiments, respectively. For soybean, the cultivar Primus was used. […] The medium was solidified due to the addition of 0,6% Gelrite, unless stated otherwise. In case of vertical plates (root length and root hair measurements), the medium was supplied with 0.5% of sucrose and 1 µM (low phosphate, 1 µM KH2PO4, 9.9 mM KCI), 10 µM (low phosphate 10 µM KH2PO4, 9.9 mM KCI) or 1.25 mM KH2PO4 (high phosphate). Arabidopsis seeds were stratified for 2 days at 4 °C before germination. Seedlings were germinated in climate-controlled growth chambers at 22 °C under continuous light (100 µmol m^-2 s^-1). Husked rice seeds were germinated on wetted Whatman paper for 2 days at 37 °C and then transferred to Sterivent boxes or square Petri dishes with solid medium. Maize and soybean seeds were wetted 24 hours at room temperature prior to sowing in pots.
Arabidopsis primary root growth experiments were done on MS1/2 on vertical standing plates and roots were measured 11 days after germination. Roots were imaged using a flatbed scanner (EPSON Expression 11000XL) and root length was measured using ImageJ software. Arabidopsis shoot biomass was determined in 11 days after germination and growth on vertical standing plates with modMS. Arabidopsis leaf area was measured 21 days after germination on horizontal plates with modMS medium. Plates were scanned from the top using a flatbed scanner (EPSON Expression 11000XL) and the visible leaf area was measured using ImageJ software. Rice plate experiments used vertically standing Petri dishes containing MS1/2 medium (low phosphate - 0.001 mM) solidified with 0.8% washed agar. Plant height was measured 11 days after germination. Rice box experiments used modMS medium and a low phosphate condition of 0.025 mM phosphate. Plant height was measured 13 days after germination. All growth experiments occurred with 10 µM of compound and in low phosphate conditions, unless stated otherwise. Controls always received the same DMSO concentration.

SPX1 = experiment: Chemical activity assessment: SPX1 phosphate starvation biomarker, pSPX1::GUS reporter line, GUS stained area; format: in vivo, Arabidopsis thaliana; settings: Table 3; 50 µM compound, low phosphate modMS liquid medium, 7 days after germination; low phosphate control average of the same plate
Summary of the method: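 Arabidopsis Col-0 pSPX1::GUS seedlings grown in 96-well plates in low-phosphate liquid modMS with 1% sucrose, compounds at 50 µM final (1% DMSO). At 7 days after germination, GUS stained 1.5 h at 37 °C and blue signal area measured from scans. Wells with leaf area 50% or less of control were omitted.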

CNC(=O)c1sc(N2CCOC(C)C2)nc1C (centres unmarked) [Compound 4.3]
Primary root length (in % versus control) (Arabidopsis): 122%

Cc1nc(N2CCOCC2)sc1C(=O)NN [Compound 4.1]
Primary root length (in % versus control) (Arabidopsis): 118%

CC1CN(CC(=O)Nc2ccccc2Cc2ccccc2)CC(C)O1 (centres unmarked)
GUS (SPX1) stained area normalized to the number of seeds (pixels) (SPX1): 0 pixels

N#Cc1c(F)cccc1Sc1nnc(N2CCOCC2)s1
GUS (SPX1) stained area normalized to the number of seeds (pixels) (SPX1): 35 pixels

O=C1Nc2ccccc2SC1Nc1ccc(F)c(S(=O)(=O)N2CCOCC2)c1 (centres unmarked)
GUS (SPX1) stained area normalized to the number of seeds (pixels) (SPX1): 3 pixels

NC(=O)C1CN(C(=O)C2(c3cccc(C(F)(F)F)c3)CC2)CCO1 (centres unmarked)
GUS (SPX1) stained area normalized to the number of seeds (pixels) (SPX1): 349 pixels

CC1CN(C(=O)c2c(Cl)nc3ccccn23)C(C)CO1 (centres unmarked)
GUS (SPX1) stained area normalized to the number of seeds (pixels) (SPX1): 4 pixels

c1cc2c(cc1Sc1nc(CN3CCOCC3)nc3sc4c(c13)CCC4)OCCO2
GUS (SPX1) stained area normalized to the number of seeds (pixels) (SPX1): 6 pixels

Cn1cccc1C1COCCN1CCOCC1CC1 (centres unmarked)
GUS (SPX1) stained area normalized to the number of seeds (pixels) (SPX1): 6 pixels

O=C(Nc1ccc(F)c(C(F)(F)F)c1)N1CCOCC1
GUS (SPX1) stained area normalized to the number of seeds (pixels) (SPX1): 8 pixels

COC(=O)C1CN(c2ccc(C(F)(F)F)cn2)C[C@@H](C)O1 (some centres unmarked)
GUS (SPX1) stained area normalized to the number of seeds (pixels) (SPX1): 1 pixels

CC(c1nnc(-c2cccs2)o1)N1CCOC(c2nccs2)C1 (centres unmarked)
GUS (SPX1) stained area normalized to the number of seeds (pixels) (SPX1): 453 pixels

O=C(c1cc(-c2ccccc2)nc2c1cnn2Cc1cccc(F)c1)N1CCOCC1
GUS (SPX1) stained area normalized to the number of seeds (pixels) (SPX1): 14 pixels

FC(F)(F)Cn1ccnc1CN1CCOC2(CCCC2)C1
GUS (SPX1) stained area normalized to the number of seeds (pixels) (SPX1): 38 pixels
